{
  "source": "paper PMC9569447",
  "about": "(International Journal of Molecular Sciences, 2022)",
  "key": {"[1]": {"details": "mouse, in vivo, sc; cited from earlier work"}, "[2]": {"details": "rat, in vivo, sc; cited from earlier work"}, "[3]": {"details": "native OXT; cited from earlier work", "from_the_text": "This OXT analog is a full agonist at OXT receptor, and it addressed some of the limitations of using OXT as a weight loss therapeutic."}, "[4]": {"tested_on": "diet-induced obese (DIO) Sprague Dawley rats", "assay": "Post-treatment serum levels after the 22-day treatment", "assay_type": "in vivo, rat", "details": "serum, 2 h post final injection after 22 days; mean ± SEM; n = 6 (Oxytocin n = 4)", "description": "Cardiac puncture was used to collect blood for analysis 2 h post final injection. Commercially available enzyme-linked immunosorbent assays (ELISA) were used for quantitative assessment of leptin (cat. # EZRL-83K; MilliporeSigma, Burlington, MA, USA), insulin (cat. # EZRMI-13K; MilliporeSigma, Burlington, MA, USA), and adiponectin (cat. # EZRAPD-62K MilliporeSigma, Burlington, MA, USA). Serum samples were diluted 1:500 for the adiponectin ELISA using the sample diluent provided with the kit. All ELISAs were completed following the manufacturers recommendations. Levels of glucose, cholesterol (total, HDL, and calculated LDL), triglycerides, ALT, and AST were determined in the serum on a Modular P chemistry analyzer (Roche Diagnostics, Risch-Rotkreuz, Switzerland) by the University of Washington Nutrition and Obesity Research Center’s Analytic Core (Seattle, WA, USA)."}},
  "note": "Where two headings read alike, the source gives them in different places.",
  "data": [
    {"smiles": "CC[C@H](C)[C@@H]1NC(=O)[C@H](Cc2ccc(O)cc2)NC(=O)[C@@H](N)CSSC[C@@H](C(=O)N2CCC[C@H]2C(=O)N[C@@H](CC(C)C)C(=O)NCC(N)=O)NC(=O)[C@H](CC(N)=O)NC(=O)[C@H](CCC(N)=O)NC1=O", "note": "[OXT, oxytocin]", "values": [
      {"measurement": "Cmax", "setting": "[1]", "result": 216, "unit": "nM"},
      {"measurement": "Free Cmax", "setting": "[1]", "result": 191, "unit": "nM"},
      {"measurement": "T1/2", "setting": "[1]", "result": 30, "unit": "min"},
      {"measurement": "Tmax", "setting": "[1]", "result": 15, "unit": "min"},
      {"measurement": "CLplasma", "setting": "[2]", "result": 17.1, "unit": "mL/min/kg"},
      {"measurement": "T1/2", "setting": "[2]", "result": 7.2, "unit": "min"},
      {"measurement": "Vd", "setting": "[2]", "result": 0.085, "unit": "L/kg"},
      {"measurement": "half-life in vivo", "setting": "[3]", "result": "~5", "unit": "min"},
      {"measurement": "ALT", "setting": "[4]", "result": "40 ± 5", "unit": "U/L"},
      {"measurement": "AST", "setting": "[4]", "result": "128 ± 22", "unit": "U/L"}
    ]}
  ]
}
